Values quoted from earlier work in article PMC5655430 (PLoS ONE, 2017).

Assays:
[1] = system: glucagon-like peptide 1 receptor (Glp1r)
Description: (§1) The complex nature of diabetic disorder necessitates use of combination therapies that will not only reduce hyperglycemia, but also correct other elements of diabetes complication, such as dyslipidemia. An increasingly common approach in peptide therapeutics focuses on hybrid peptides that can target two or even three receptors. […] Similar dual agonist peptides, with improved half-life and potency have been rep ...

glucagon receptor (Gcgr) = system: glucagon receptor (Gcgr)
Description: as §1

## Oxyntomodulin
[1]
  Binding and activation on Glp1r: weak binding and activation
Glucagon receptor (Gcgr)
  Binding and activation on Gcgr: weak binding and activation
